Experimental data from paper PMC8617627, “Novel DYRK1A Inhibitor Rescues Learning and Memory Deficits in a Mouse Model of Down Syndrome” (Pharmaceuticals, 2021).
Read-outs that look alike come from different tables or passages of the source.

Key:
Assay in all cases: Kinase profile (33P ATP filter binding)
Type in all cases: biochemical
EPH-B2 = target: T1, EPH-B2 (Homo sapiens, UniProt P29323)
T1 sequence (P29323 19-1055): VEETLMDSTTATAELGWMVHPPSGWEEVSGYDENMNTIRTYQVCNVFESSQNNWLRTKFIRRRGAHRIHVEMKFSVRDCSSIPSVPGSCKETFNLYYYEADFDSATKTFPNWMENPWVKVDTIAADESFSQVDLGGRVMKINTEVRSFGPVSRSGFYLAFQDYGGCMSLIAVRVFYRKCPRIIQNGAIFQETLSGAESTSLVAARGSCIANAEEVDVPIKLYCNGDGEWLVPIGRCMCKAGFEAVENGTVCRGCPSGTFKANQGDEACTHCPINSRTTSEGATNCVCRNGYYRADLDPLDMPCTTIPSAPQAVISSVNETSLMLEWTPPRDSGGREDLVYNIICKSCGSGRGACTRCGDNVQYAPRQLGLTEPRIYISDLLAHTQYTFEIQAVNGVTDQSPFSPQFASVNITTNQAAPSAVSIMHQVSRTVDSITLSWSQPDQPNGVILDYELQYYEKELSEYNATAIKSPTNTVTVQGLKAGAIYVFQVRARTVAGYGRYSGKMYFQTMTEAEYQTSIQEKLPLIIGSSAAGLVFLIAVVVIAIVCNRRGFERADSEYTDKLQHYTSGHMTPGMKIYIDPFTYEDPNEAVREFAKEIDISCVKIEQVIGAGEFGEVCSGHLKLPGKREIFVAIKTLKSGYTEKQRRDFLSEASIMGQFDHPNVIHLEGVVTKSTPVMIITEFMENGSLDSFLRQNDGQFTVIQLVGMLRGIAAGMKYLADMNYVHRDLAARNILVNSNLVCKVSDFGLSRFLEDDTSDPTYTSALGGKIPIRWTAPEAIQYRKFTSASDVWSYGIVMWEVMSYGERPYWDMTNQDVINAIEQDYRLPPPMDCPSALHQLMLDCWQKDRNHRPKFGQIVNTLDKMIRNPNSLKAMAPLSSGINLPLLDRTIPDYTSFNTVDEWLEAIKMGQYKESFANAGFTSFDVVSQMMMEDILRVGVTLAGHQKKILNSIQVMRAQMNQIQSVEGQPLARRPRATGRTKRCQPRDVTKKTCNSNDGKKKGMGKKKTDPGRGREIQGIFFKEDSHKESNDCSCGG
Experimental: (§1) The compounds were diluted to the appropriate concentration. The compounds were added to a “mother plate” consisting of samples, controls, and blanks. These serve as the source for “daughter plates” which are stored at −20 °C until assay initiation. Protein Kinases: Enzyme/Substrate mixture was added to the compound, and the compounds were incubated for five minutes at room temperature (RT). ^33P ATP was added to the compounds to initiate the assay. Orthophosphoric acid was added to the compounds to halt the assay. Assay components were harvested onto P81 filter plates, filter plates were air-dried, scintillation fluid was added to plates, and counts were read on a Topcount NXT. A mean percentage activity was calculated.

NUAK1 = target: T2, NUAK1 (Homo sapiens, UniProt O60285)
T2 sequence (O60285 1-661): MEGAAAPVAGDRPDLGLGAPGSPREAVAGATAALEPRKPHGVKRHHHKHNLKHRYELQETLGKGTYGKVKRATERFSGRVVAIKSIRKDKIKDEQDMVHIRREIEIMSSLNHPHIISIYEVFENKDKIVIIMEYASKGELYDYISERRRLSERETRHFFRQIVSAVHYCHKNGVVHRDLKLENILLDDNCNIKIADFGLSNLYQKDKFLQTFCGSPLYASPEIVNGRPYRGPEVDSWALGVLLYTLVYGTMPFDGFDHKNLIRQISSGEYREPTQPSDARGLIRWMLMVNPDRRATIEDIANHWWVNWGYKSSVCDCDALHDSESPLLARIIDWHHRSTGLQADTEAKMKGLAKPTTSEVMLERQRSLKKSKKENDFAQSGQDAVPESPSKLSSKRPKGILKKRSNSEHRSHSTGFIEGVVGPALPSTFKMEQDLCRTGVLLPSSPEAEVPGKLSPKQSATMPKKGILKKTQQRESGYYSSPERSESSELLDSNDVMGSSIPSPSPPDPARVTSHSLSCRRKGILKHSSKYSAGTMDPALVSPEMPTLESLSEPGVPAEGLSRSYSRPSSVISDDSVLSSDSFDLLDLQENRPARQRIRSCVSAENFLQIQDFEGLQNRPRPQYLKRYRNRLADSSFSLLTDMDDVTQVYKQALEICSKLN
Experimental: as §1

YES1 = YES1 (Homo sapiens, UniProt P07947); conditions: read-out: Remaining protein kinase activity
Experimental: as §1

BRSK1 = target: T3, BRSK1 (Homo sapiens, UniProt Q8TDC3); conditions: read-out: Remaining protein kinase activity
T3 sequence (Q8TDC3 1-778): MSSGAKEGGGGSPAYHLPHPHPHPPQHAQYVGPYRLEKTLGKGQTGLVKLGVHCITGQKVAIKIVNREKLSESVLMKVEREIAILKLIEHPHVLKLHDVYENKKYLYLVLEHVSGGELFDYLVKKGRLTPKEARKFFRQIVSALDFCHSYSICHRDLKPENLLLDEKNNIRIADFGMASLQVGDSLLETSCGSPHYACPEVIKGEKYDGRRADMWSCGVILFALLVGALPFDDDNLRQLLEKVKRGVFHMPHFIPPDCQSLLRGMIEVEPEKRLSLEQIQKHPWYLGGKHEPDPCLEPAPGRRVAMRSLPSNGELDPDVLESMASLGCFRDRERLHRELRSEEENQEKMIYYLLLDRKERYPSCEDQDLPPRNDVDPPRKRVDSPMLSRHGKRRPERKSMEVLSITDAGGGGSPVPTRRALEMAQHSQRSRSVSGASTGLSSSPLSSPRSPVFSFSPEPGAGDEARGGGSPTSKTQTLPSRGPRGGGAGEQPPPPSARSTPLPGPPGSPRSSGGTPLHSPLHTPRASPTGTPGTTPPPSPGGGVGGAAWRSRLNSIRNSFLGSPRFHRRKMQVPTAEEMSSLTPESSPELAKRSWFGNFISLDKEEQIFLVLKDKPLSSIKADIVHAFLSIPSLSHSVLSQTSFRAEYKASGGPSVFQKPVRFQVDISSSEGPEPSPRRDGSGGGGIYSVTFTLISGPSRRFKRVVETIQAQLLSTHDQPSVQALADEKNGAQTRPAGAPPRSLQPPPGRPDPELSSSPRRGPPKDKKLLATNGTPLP
Experimental: as §1

CK2 = CK2 (Homo sapiens, UniProt P68400); conditions: read-out: Remaining protein kinase activity
Experimental: as §1

MNK1 = MNK1 (Homo sapiens, UniProt Q9BUB5); conditions: read-out: Remaining protein kinase activity
Experimental: as §1

Sequence of MNK1 (Q9BUB5 whole entry): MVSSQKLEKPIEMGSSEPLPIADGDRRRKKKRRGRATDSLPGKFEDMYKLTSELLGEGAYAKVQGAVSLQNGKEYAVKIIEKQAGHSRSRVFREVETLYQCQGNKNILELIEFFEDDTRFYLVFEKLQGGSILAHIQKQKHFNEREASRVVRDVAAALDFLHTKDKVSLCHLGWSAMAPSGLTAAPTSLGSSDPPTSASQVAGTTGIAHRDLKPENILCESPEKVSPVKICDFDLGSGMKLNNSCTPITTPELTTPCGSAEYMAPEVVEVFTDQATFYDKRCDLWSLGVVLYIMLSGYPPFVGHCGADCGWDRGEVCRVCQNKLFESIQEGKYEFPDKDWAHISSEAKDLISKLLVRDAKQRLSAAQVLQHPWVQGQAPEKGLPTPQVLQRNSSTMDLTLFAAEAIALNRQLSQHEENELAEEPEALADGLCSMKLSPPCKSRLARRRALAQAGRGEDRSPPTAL
Sequence of YES1 (P07947 whole entry): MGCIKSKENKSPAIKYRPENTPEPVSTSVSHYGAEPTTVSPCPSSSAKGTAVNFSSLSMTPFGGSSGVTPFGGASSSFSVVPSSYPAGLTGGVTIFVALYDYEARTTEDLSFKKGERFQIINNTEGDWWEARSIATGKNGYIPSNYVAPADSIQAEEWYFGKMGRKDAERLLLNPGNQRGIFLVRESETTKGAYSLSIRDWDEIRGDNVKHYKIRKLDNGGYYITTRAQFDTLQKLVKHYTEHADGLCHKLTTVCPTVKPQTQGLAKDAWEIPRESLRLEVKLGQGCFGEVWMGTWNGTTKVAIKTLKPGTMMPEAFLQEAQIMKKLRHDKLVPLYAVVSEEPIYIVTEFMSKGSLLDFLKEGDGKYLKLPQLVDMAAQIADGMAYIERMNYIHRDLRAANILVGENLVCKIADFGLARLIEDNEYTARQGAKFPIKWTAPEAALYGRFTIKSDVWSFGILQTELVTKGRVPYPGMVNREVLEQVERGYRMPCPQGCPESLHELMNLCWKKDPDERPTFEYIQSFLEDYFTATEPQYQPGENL
Sequence of CK2 (P68400 whole entry): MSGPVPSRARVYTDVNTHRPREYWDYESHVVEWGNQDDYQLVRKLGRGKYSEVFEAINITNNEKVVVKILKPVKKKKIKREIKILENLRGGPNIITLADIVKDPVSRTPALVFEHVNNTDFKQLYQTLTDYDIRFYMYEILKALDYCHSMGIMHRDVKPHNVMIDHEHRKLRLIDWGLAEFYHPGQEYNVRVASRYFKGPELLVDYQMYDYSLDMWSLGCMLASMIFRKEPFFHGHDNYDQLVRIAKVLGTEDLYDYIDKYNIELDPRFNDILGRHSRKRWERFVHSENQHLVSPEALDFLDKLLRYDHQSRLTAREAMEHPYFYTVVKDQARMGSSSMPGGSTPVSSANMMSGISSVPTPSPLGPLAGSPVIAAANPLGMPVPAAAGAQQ

Row | Structure (SMILES) | Remaining protein kinase activity (EPH-B2; 1 μM) [%] | Remaining protein kinase activity (EPH-B2; 100 μM) [%] | Remaining protein kinase activity (NUAK1; 1 μM) [%] | remaining activity at 1 µM (YES1) [%] | remaining activity at 100 µM (YES1) [%] | remaining activity at 1 µM (BRSK1) [%] | remaining activity at 100 µM (BRSK1) [%] | remaining activity at 100 µM (CK2; CK2) [%] | remaining activity at 1 µM (CK2) [%] | remaining activity at 1 µM (MNK1) [%] | remaining activity at 100 µM (MNK1) [%] | Remaining protein kinase activity (NUAK1; 100 μM) [%] | remaining activity at 1 µM (YES1; YES1, 1 μM) [%] | remaining activity at 100 µM (YES1; YES1, 100 μM) [%] | remaining activity at 1 µM (BRSK1; BRSK1, 1 μM) [%] | remaining activity at 100 µM (BRSK1; BRSK1, 100 μM) [%] | remaining activity at 1 µM (CK2; CK2, 1 μM) [%] | remaining activity at 1 µM (MNK1; MNK1, 1 μM) [%] | remaining activity at 100 µM (MNK1; MNK1, 100 μM) [%]
1 | COc1ccc2sc(-c3cncc(NC(C)=O)c3)nc2c1 [PST-001, N-(5-(5-Methoxybenzo[d]thiazol-2-yl)pyridin-3-yl)acetamide] | 137 | 125 | 130 | 130 | 128 | 114 | 111 | 95 | 102 | 111 | 94 |  |  |  |  |  |  |  | 
2 | COc1ccc2sc(-c3cncc(N)c3)nc2c1 [compound 1, 5-(5-Methoxybenzo[d]thiazol-2-yl)pyridin-3-amine] | 136 | 96 | 112 |  |  |  |  | 21 |  |  |  | 35 | 122 | 58 | 115 | 37 | 103 | 97 | 20
